Experimental data reported in publication PMC10349806 (Nature Communications, 2023).
“And” between values parts separate entries of the source, which are not always exact repeats. Equal values may be shown once.

Tests used:
PfCRT variant E207T = test: CQ uptake assay, oocytes expressing E207T; assay type: cell-based, Plasmodium falciparum
Method: (§1) Site-directed mutagenesis of PfCRT^Dd2 was performed as described using the megaprimer method with overlap extension[21],[54]. The primer pairs used are listed in Supplementary Table 6. Please note that a codon-optimized and oocyte-adapted version of PfCRT^Dd2 was used[22] (Supplementary Fig. 16). The resulting DNA fragment was cloned into the SP64T expression vector and verified by sequencing.
(§2) Oocytes were obtained as described previously. Briefly, adult (>2 years old) female X. laevis frogs (NASCO) were anesthetized in a cooled solution of ethyl 3-amino benzoate methanesulfonate (0.1%, w/v), followed by a surgical removal of parts of the ovary. The ovary lobes were carefully dissected and small pieces of oocytes were incubated in Ca^2+-free ND96 buffer (96 mM NaCl, 2 mM KCl, 1 mM MgCl2 buffered with 5 mM HEPES/NaOH, pH 7.5) supplemented with collagenase D (0.1%, w/v; Roche), BSA (0.5%, w/v), and 9 mm Na2HPO4 at 18 °C for 14-16 h while gentle shaking. After incubation, the oocytes were carefully washed several times with ND96 buffer (96 mM NaCl, 2 mM KCl, 1.8 mM CaCl2, 1 mM MgCl2 buffered with 5 mM HEPES/NaOH, pH 7.5) supplemented with 100 mg l^−1 gentamycin). Defolliculated and healthy-looking stage V-VI oocytes were manually selected for RNA microinjection. The RNA was generated as following: The codon-optimized sequences of PfCRT variants were cloned into the pSP64T expression vector. After vector linearization using the restriction endonucleases BamHI or SalI (New England Biolabs), transcription was performed using the in vitro SP6 mMessage mMachine Kit (Ambion)[34]. The obtained RNA was kept at −80 °C and diluted with nuclease-free water to a concentration of 0.6 μg μl^−1. Precision-bore glass capillary tubes (3.5-inch glass capillaries; Drummond Scientific Co.) were pulled on a vertical puller (P-87 Flaming/Brown micropipette puller, Sutter Instrument Co.), graduated, and placed on a microinjector (Nanoject II Auto-Nanoliter Injector, Drummond Scientific Co.). 50 nl of nuclease-free water alone (control oocytes) or 50 nl of 0.6 μg μl^−1 RNA were injected under stereomicroscopic control. Injected oocytes were incubated for 46–72 h at 18 °C with twice-daily buffer changes before usage in experiments.
Drug uptake assays were performed as described previously[21],[22],[24],[34]. […] The direction of radio-labeled drug transport is here from the mostly acidic extracellular solution (pH 4.5 or 6.0, as indicated) into the oocyte cytosol (pH ∼ 7.2), which corresponds to the efflux of drug from the acidic digestive vacuole (pH 5.2) into the parasite cytoplasm (pH 7.2). The topology of PfCRT in the oolemma is such that both the N- and C-terminus face the extracellular milieu[3],[22]. In the parasite, the N- and C-terminus face the lumen of the digestive vacuole. […] For determination of the amount of drug uptake for each oocyte, the reaction medium was removed and the oocytes were washed three times with 2 ml of ice-cold ND96 buffer. Each oocyte was individually transferred to a scintillation vial containing 5% sodium dodecyl sulfate (200 μl) for lysis. […] Oocytes that were injected with water instead of RNA were analyzed in parallel, representing the uptake of a drug by diffusion and/or endogenous permeation pathways. […] The specific PfCRT-mediated uptake was determined by subtracting the corresponding background value measured in water-injected oocytes from that of PfCRT-expressing oocytes. […]

PfCRT variant D368A = biological target: T1, PfCRT variant D368A (Plasmodium falciparum, UniProt Q9N623, A220S/D368A/I356T/K76T/M74I/N326S/N75E/Q271E/R371I); test: CQ uptake assay, oocytes expressing D368A; assay type: cell-based
T1 sequence (Q9N623 1-424 M74I/N75E/K76T/A220S/Q271E/N326S/I356T/D368A/R371I): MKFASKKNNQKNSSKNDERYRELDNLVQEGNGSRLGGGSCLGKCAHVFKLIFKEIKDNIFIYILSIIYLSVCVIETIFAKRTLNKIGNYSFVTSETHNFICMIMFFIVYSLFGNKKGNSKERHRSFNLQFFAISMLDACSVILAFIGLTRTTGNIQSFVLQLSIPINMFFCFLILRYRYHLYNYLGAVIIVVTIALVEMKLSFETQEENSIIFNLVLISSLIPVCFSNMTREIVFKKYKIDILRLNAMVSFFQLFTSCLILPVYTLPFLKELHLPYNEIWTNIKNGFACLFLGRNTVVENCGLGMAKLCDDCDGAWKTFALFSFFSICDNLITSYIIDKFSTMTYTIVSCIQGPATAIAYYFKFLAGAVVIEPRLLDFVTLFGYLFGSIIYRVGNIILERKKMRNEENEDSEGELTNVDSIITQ
Method: as §1, §2
Drug uptake assays were performed as described previously[21],[22],[24],[34]. […] The direction of radio-labeled drug transport is here from the mostly acidic extracellular solution (pH 4.5 or 6.0, as indicated) into the oocyte cytosol (pH ∼ 7.2), which corresponds to the efflux of drug from the acidic digestive vacuole (pH 5.2) into the parasite cytoplasm (pH 7.2). The topology of PfCRT in the oolemma is such that both the N- and C-terminus face the extracellular milieu[3],[22]. In the parasite, the N- and C-terminus face the lumen of the digestive vacuole. CQ uptake kinetics were performed by incubating oocytes in ND96 buffer adjusted to a pH of 4.5, 5.0, 5.5, or 6.0 and supplemented with 50 nM [^3H]CQ and one of 7 different CQ concentrations (10 µM, 50 µM, 100 µM, 200 µM, 300 µM, 400 µM, 500 µM CQ). The reaction was stopped at the 60 min time point, which is in the linear uptake range[22],[34] (Supplementary Fig. 17). […] The radioactivity of each sample was measured using a liquid scintillation analyzer Tri-Carb 4910 TR (PerkinElmer). Oocytes that were injected with water instead of RNA were analyzed in parallel, representing the uptake of a drug by diffusion and/or endogenous permeation pathways. […]

[1] = D368A, 50 µM CQ, 1 h, mean ± SEM

SMILES: CCN(CC)CCCC(C)Nc1ccnc2cc(Cl)ccc12 (stereo not shown) [CQ, chloroquine]
- Activity at pH 6.0 (PfCRT variant E207T; E207T, 50 µM CQ, 1 h, mean ± SEM): 2.62 ± 0.31 pmol h-1 oocyte-1
- R-value (PfCRT variant E207T; E207T, CQ transport at pH 4.5 / pH 6.0): 0.91 ± 0.05
- E207T transport activity pH 4.5 (PfCRT variant E207T; pH 4.5, individual replicates, Fig 6b): 3.35 pmol oocyte-1 h-1 and 2.14 pmol oocyte-1 h-1 and 1.74 pmol oocyte-1 h-1
- E207T transport activity pH 6.0 (PfCRT variant E207T; pH 6.0, individual replicates, Fig 6b): 3.37 pmol oocyte-1 h-1 and 2.31 pmol oocyte-1 h-1 and 2.17 pmol oocyte-1 h-1
- E207T R-value (PfCRT variant E207T; ratio of activity pH 4.5 / pH 6.0): 0.99 and 0.93 and 0.80
- Activity at pH 4.5 (PfCRT variant D368A; [1]): 1.36 ± 0.32 pmol h-1 oocyte-1
- Activity at pH 6.0 (PfCRT variant D368A; [1]): 3.05 ± 0.29 pmol h-1 oocyte-1
- R-value (PfCRT variant D368A; D368A, CQ transport at pH 4.5 / pH 6.0): 0.44 ± 0.08
- D368A transport activity pH 4.5 (PfCRT variant D368A; pH 4.5, single replicates, Fig 1d left): 2.14 pmol oocyte-1 h-1 and 0.90 pmol oocyte-1 h-1 and 1.05 pmol oocyte-1 h-1
- D368A transport activity pH 6.0 (PfCRT variant D368A; pH 6.0, single replicates, Fig 1d left): 3.49 pmol oocyte-1 h-1 and 3.31 pmol oocyte-1 h-1 and 2.36 pmol oocyte-1 h-1
